From patent publication US11000491B2, “Amino-aryl-benzamide compounds and methods of use thereof” (HEPANOVA, INC., priority 2017, dated 2021)
Where two headings read alike, the source gives them in different places.

Assays:
Assay type in all cases: cell-based
[1] = tested on: SREBP-1; assay: SREBP-1 expression in cultured primary human hepatocytes; details: Hepatocyte, procedure of Example 6, read-out: SREBP-1 mRNA inhibition (EC50)
How it was run: (§1)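 Primary human hepatocytes in culture exposed to a range of HPN-01 derivative concentrations; SREBP-1 and SREBP-2 mRNA expression then measured to assess inhibition.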

[2] = tested on: Huh7 cells; assay: LD content in Huh7 cells pre-treated with insulin, Oil-Red-O staining, absorbance OD 540 nm; details: Homo sapiens, Huh-7, Huh7 cells, procedure of Example 3; read-out: LD content inhibition (EC50)
How it was run: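 Huh7 cells, mock-treated or pre-treated with 1 mM insulin, were then exposed to compound at the indicated amounts. Lipid droplets stained with Oil Red O and quantified by absorbance at OD 540 nm.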

[3] = tested on: SREBP-2; assay: SREBP-2 expression in cultured primary human hepatocytes; details: Hepatocyte, procedure of Example 6, read-out: SREBP-2 mRNA inhibition (EC50)
How it was run: as §1

Structure (SMILES) | EC50 ([1]; Homo sapiens) [µM] | EC50 [2] [µM] | EC50 ([3]; Homo sapiens) [µM] | EC50 [1] [µM] | EC50 [3] [µM]
NC(=O)c1cc(-c2ccc(Cl)cc2)cc(Nc2cccc(S(N)(=O)=O)c2)c1N [HPN-01413, 4-amino-4′-chloro-5-((3-sulfamoylphenyl)amino)-[1,1′-biphenyl]-3-carboxamide] | 1.52 | 0.74 | 2.7 |  | 
NC(=O)c1cc(-c2ccc(Cl)cc2)cc(Sc2cccc(S(N)(=O)=O)c2)c1N [HPN-01414, 4-amino-4′-chloro-5-((3-sulfamoylphenyl)thio)-[1,1′-biphenyl]-3-carboxamide] | 3.94 | 1.57 | 9.86 |  | 
NC(=O)c1cc(-c2ccc(Br)cc2)cc(Oc2cccc(S(N)(=O)=O)c2)c1N [HPN-01415, 4-amino-4′-bromo-5-(3-sulfamoylphenoxy)-[1, 1′-biphenyl]-3-carboxamide] | 2.35 | 0.66 | 6.45 |  | 
NC(=O)c1cc(-c2ccc(Br)cc2)cc(-c2ccc(OP(=O)(O)O)cc2)c1N [HPN-01416, 6′-amino-4″-bromo-5′-carbamoyl-[1,1′:3′,1″-terphenyl]-4-yl dihydrogen phosphate] |  | 1.51 |  | 3.02 | 4.01
N=C(N)Nc1ccc(-c2cc(-c3ccc(Cl)cc3)cc(C(N)=O)c2N)cc1 [HPN-01417, 4′-amino-4-chloro-4″-guanidino-[1,1′:3′,1″-terphenyl]-5′-carboxamide] | 3.15 | 1.26 | 4.92 |  | 
NC(=O)c1cc(-c2ccc(Cl)cc2)cc(-c2ccc(NC(N)=S)cc2)c1N [HPN-01418, 4′-amino-4-chloro-4″-thioureido-[1,1′:3′,1″-terphenyl]-5′-carboxamide] | 2.69 | 0.98 | 2.45 |  | 
NC(=O)c1cc(-c2ccc(Cl)cc2)cc(-c2ccc(NC(=O)CO)cc2)c1N [HPN-01419, 4′-amino-4-chloro-4″-(2-hydroxyacetamido)-[1,1′:3′,1″-terphenyl]-5′-carboxamide] | 1.82 | 0.5 | 3.53 |  | 
NC(=O)c1cc(-c2ccc(Cl)cc2)cc(-c2ccc(N3CC=NC3=O)cc2)c1N [HPN-01420, 4′-amino-4-chloro-4″-(2-oxo-2,5-dihydro-1H-imidazol-1-yl)-[1,1′:3′,1″-terphenyl]-5′-carboxamide] | 2.14 | 0.42 | 2.37 |  | 
NC(=O)c1cc(-c2ccc(Cl)cc2)cc(-c2ccc(-c3c[nH]nn3)cc2)c1N [HPN-01421, 4′-amino-4-chloro-4″-(1H-1,2,3-triazol-4-yl)-[1,1′:3′,1″-terphenyl]-5′-carboxamide] | 1.51 | 0.75 | 2.22 |  | 
NC(=O)c1cc(-c2ccc(Cl)cc2)cc(Oc2cccc(S(=O)(=O)NCCO)c2)c1N [HPN-01422, 4-amino-4′-chloro-5-(3-(N-(2-hydroxyethyl)sulfamoyl)phenoxy)-[1, 1′-biphenyl]-3-carboxamide] | 1.52 | 1.44 | 3.93 |  | 
NC(=O)c1cc(-c2ccc(Cl)cc2)cc(OCCc2ccc(S(N)(=O)=O)cc2)c1N [HPN-01423, 4-amino-4′-chloro-5-(4-sulfamoylphenethoxy)-[1,1′-biphenyl]-3-carboxamide] | 1.36 | 0.81 | 2.37 |  | 
NC(=O)c1cc(-c2ccc(Cl)cc2)cc(OCc2ccc(S(N)(=O)=O)cc2)c1N [HPN-01424, 4-amino-4′-chloro-5-((4-sulfamoylbenzyl)oxy)-[1,1′-biphenyl]-3-carboxamide] | 2.69 | 1.45 | 4.31 |  | 
NC(=O)c1cc(-c2ccc(Cl)cc2)cc(NCCc2ccc(S(N)(=O)=O)cc2)c1N [HPN-01425, 4-amino-4′-chloro-5-((4-sulfamoylphenethyl)amino)-[1,1′-biphenyl]-3-carboxamide] | 2.83 | 6.48 | 3.44 |  | 
NC(=O)c1cc(-c2ccc(Cl)cc2)cc(NCc2ccc(S(N)(=O)=O)cc2)c1N [HPN-01426, 4-amino-4′-chloro-5-((4-sulfamoylbenzyl)amino)-[1,1′-biphenyl]-3-carboxamide] | 11 | 1.15 | 9.4 |  | 
